Drawing on ChEMBL document CHEMBL4406816, “Role of sulphur-heterocycles in medicinal chemistry: An update” (Eur J Med Chem, 2019), this text covers MIC for one compound.

This experiment deals with Mycobacterium tuberculosis variant bovis. In words: Antitubercular activity against Mycobacterium bovis. The experiment is classed as functional.

≈ marks a conversion by molar mass, not a printed value.

As usually defined, the MIC is the smallest concentration in the dilution series that meets the test's criterion for growth inhibition. High values mean weaker potency, low ones greater potency.

In turn, `Fc1ccc(-c2cn(Cc3csc(-c4ccccc4)n3)nn2)cc1` had a minimum inhibitory concentration (MIC) of 1.69 µg/mL (≈ 5.02 µM).
